The text below walks through data of patent publication US20140087451A1, “ACOUSTIC WAVE (AW) SENSING DEVICES USING LIVE CELLS” (University of Massachusetts, priority 2010, published 2014).

One experiment deals with HMECs. The conditions noted are these: bFGF added to HMECs; cited from earlier work.
The subject of experiment [1] is its specific growth factor receptor. The following applies: stated as 'has been shown'; cited from earlier work.
The test system of experiment [2] is Human Mammary Epithelial Cells (HMECs). The experiment in a line: QCM (10 MHz) fundamental and third overtone frequency shift with attached cells treated with growth factor. It counts as cell-based. The following applies: bFGF 12.5 ng/ml final; 20,000 HMEC cells on 10 MHz QCM; 300 min after addition; FIG. 6. The source says: An AT cut 0.538″ diameter quartz disk with 100 nm thick gold electrodes was used for the piezoelectric medium in this experiment. A polydimethylsiloxane (PDMS) tube with an outer diameter of 0.4″ and an inner diameter of 0.3″ and 0.3″ high was attached to one side of the quartz disk for use as a reservoir for cell media. The quartz crystal was mounted in a HC35/U holder with silver epoxy bonding between the electrodes and the gold electrodes on the crystal.
The oscillator circuitry is a Colpitts oscillator, shown in FIG. 7, modified to enable the quartz to undergo shear wave oscillations under a liquid load. The thickness of the crystal is such that an unloaded crystal oscillating in air would operate at 10 MHz. The Colpitts oscillator was tuned to only amplify frequencies in the range of 10 MHz. A second class C amplifier operating as a frequency multiplier was connected to the ungrounded electrode of the quartz crystal. The multiplier was tuned to capture the crystal's third harmonic oscillations. The output of the multiplier and the voltage at the crystal were connected to the inputs of a two channel oscilloscope. The waveforms were digitally captured using Labview software and passed through a fast Fourier transform. The frequency of the signals were captured and recorded at one minute intervals, prior to and following addition of cells to the crystal surface. […]

Experiment [3] relates to Human Microvascular Endothelial Cells derived from Lung (HMVEC-L). Briefly: Surface acoustic wave (SAW) device, 21 MHz, frequency and attenuation response of attached cells. It counts as cell-based. The following applies: for sensitivity (frequency shift normalized to operating frequency and number of live attached cells): SAW 21 MHz.
Experimental: An AT cut quartz wafer was prepared with electrodes for a surface acoustic wave (SAW) patterned on one side. The transmitting and receiving electrodes were composed of interdigitated (IDT) electrodes fabricated by lift off of gold deposited by electron beam evaporation. The IDTs were composed of 120 pairs of electrode fingers. This spacing corresponds to the wavelength of a SAW of 21 MHz. The sensing area between the IDTs was 20×8 mm. A 2 μm thick layer of poly(methylmethacrylate) (PMMA) was spin coated onto the surface of the SAW to serve as an insulating layer for the IDTs as well as a waveguide for the Love waves generated by the transmitting IDT.
The SAW was connected to an Agilent E5061B network analyzer, set up for transmission measurements (s12). Before liquid was added, the resonant frequency of 21 MHz was confirmed. Using Labview software, the resonant frequency and attenuation of the SAW was measured once per second during an experiment. A drop of cell media containing cells was placed in the sensing area allowing cells to attach, as described below.
The Human Microvascular Endothelial Cells derived from Lung (HMVEC-L) cell line was obtained from Lonza (Basel, Switzerland) and stock cultures were established and grown in media recommended by the manufacturers, at 37° C. in a humidity controlled incubator with 5% CO2, unless otherwise noted. The media used was EBM™-2, (CC-3156) (Lonza Basel, Switzerland) with EGM™-2-MV BulletKit™ (CC-3202) (Lonza Basel, Switzerland) containing hEGF, Hydrocortisone, GA-1000 (Gentamicin, Amphotericin-B), VEGE, hFGF-B, R3-IGF-1 and 5% FBS. The HMVEC-L cells were grown in 25 cm^2 rectangular canted neck cell culture flasks with vented caps (Corning Life Science, Lowell, Mass.), and re-fed every three days and passaged once a week using a 0.05% solution of trypsin:EGTA (Invitrogen, Carlsbad, Calif.) as stock cultures.
Two different treatments of the cells on the SAW device were carried out in separate experiments. […] All the solutions were stored at 4° C. in a refrigerator. Prior to cell plating onto the SAW device, the SAW device was cleaned by rinsing with distilled water and then UV sterilized for 30 min. After sterilization and further washing with water and Phosphate Buffered Saline (PBS), 50 μl of medium containing 20,000 HMVEC-L cells was added to the sensing area of the SAW device, which had been previously placed within a 150 mm diameter Petri dish. Smaller Petri dishes filled with reservoirs of media were placed around the central SAW device, in order to provide additional surface area for evaporation of water. The purpose of this arrangement, large volume and area reservoirs of iso-osmotic pressure media in the Petri dishes, was to prevent evaporative loss of water from the small volume of media covering the cells in the sensing area of the SAW device. The SAW device in the large covered Petri dish was located on the bench top in ambient air. The Petri dish cover was removed and cells were plated in media onto the sensing area surface of the SAW device and the HMVEC-L cells in the covered Petri dish were allowed to attach to the sensing area SAW device surface for 18 hr. Then, the media was changed with 50 μl fresh medium.
For a further experiment, the system named is HMVEC-L cells. The experiment in a line: Commercial quartz crystal microbalance (QCM), 10 MHz fundamental frequency, equivalent prior experiments. It counts as cell-based, human.

“bFGF: Basic human Fibroblast Growth Factor from Sigma, reconstituted in 50 mM Tris-HCl pH7.5”: the “lag time of proliferative response (increase in thymidine incorporation)” value with HMECs is recorded as “about 21 hr”. In experiment [1], the “time to bind and activate its specific growth factor receptor” value is not above 8 min. The “frequency shift of third overtone compared to the fundamental in response to the growth factor” value in experiment [2] is “larger frequency shift”.
As for trypsin, in experiment [3] (0.05% trypsin:EGTA, cell release, 20,000 HMVEC-L cells on SAW sensing area, FIG. 12), the “abrupt increase in frequency” value is “about 60 kHz”. In addition, the “sensitivity (frequency shift normalized to operating frequency and number of live attached cells)” value in experiment [3] (Trypsin enzymatic removal experiment) was 3.75×10^−7 /cell. Also, the equivalent sensitivity in the experiment with HMVEC-L cells (trypsinization experiment) was 1×10^−8 /cell.
For `[N-]=[N+]=[N-]` [sodium azide, Sodium azide], the “change in Attenuation values” in experiment [3] (50 mM sodium azide final, 20,000 HMVEC-L cells on SAW device, FIG. 11) is “approximately 8 dBm”. Also, the increase in frequency entry in experiment [3] (50 mM sodium azide final, 20,000 HMVEC-L cells on SAW sensing area, 4 hr after addition, FIG. 11) was “about 17 kHz”. Besides, in experiment [3] (50 mM sodium azide experiment), the “sensitivity (frequency shift normalized to operating frequency and number of live attached cells)” value was 5.6×10^−8 /cell. The equivalent sensitivity in the experiment on HMVEC-L cells (50 mM azide experiment) is 4.1×10^−9 /cell.
